# Legend:
# Parameters in all cases: scale not given: the % may be the effect or the level left
# [1] = target: Interleukin-1 receptor-associated kinase 3 (Homo sapiens) (UniProt Q9Y616); assay: Inhibition of DNA-tagged human IRAK3 assessed as percent of control at 50000 nM by qPCR analysis relative to control
# [2] = target: Tyrosine-protein kinase Fgr (Homo sapiens) (UniProt P09769); assay: Inhibition of DNA-tagged human FGR assessed as percent of control at 50000 nM by qPCR analysis relative to control
# Sequence of Tyrosine-protein kinase Fgr (Homo sapiens) (P09769 2-529 limits assumed): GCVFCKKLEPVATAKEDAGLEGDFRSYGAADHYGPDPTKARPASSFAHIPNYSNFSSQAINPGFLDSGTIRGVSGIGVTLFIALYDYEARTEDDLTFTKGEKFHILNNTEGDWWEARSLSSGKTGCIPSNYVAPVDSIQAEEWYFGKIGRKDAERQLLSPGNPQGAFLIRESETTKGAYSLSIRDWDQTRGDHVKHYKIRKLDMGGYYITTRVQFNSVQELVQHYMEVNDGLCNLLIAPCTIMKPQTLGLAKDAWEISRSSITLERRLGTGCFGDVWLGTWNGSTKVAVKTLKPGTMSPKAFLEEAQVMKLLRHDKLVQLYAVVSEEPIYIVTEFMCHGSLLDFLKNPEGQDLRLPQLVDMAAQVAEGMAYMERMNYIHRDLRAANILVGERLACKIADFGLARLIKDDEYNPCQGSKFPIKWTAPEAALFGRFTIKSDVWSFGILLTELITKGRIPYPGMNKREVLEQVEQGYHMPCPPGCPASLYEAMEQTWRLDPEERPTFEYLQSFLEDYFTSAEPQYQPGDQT
# [3] = system: Epidermal growth factor receptor (Homo sapiens), P00533 [UNDEFINED MUTATION]; assay: Inhibition of DNA-tagged human EGFR L747-E749del/A750P double mutant assessed as percent of control at 50000 nM by qPCR analysis relative to control
# [4] = target: Dual specificity tyrosine-phosphorylation-regulated kinase 2 (Homo sapiens) (UniProt Q92630); assay: Inhibition of DNA-tagged human DYRK2 assessed as percent of control at 50000 nM by qPCR analysis relative to control
# Sequence of Dual specificity tyrosine-phosphorylation-regulated kinase 2 (Homo sapiens) (Q92630 whole entry): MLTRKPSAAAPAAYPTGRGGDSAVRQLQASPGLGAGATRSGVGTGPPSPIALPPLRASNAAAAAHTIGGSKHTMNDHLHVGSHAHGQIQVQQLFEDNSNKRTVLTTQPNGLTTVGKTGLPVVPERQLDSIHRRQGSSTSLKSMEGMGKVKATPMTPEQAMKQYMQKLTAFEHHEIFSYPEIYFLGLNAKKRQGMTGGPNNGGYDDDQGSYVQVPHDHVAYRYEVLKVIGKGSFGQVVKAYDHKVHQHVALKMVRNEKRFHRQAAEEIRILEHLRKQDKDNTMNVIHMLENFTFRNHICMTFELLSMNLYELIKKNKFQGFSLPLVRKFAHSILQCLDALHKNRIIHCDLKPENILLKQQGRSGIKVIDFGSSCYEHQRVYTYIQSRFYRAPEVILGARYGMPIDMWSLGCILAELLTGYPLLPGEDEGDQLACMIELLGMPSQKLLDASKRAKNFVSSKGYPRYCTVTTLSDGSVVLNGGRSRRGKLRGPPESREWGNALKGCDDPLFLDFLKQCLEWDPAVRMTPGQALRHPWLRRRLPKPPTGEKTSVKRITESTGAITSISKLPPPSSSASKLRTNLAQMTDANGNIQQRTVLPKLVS
# [5] = target: Dual specificity protein kinase CLK3 (Homo sapiens) (UniProt P49761); assay: Inhibition of DNA-tagged human CLK3 assessed as percent of control at 50000 nM by qPCR analysis relative to control
# [6] = target: Cyclin-dependent kinase 4/cyclin D1 (Homo sapiens) (UniProt P11802+P24385); assay: Inhibition of DNA-tagged human CDK4/cyclin D1 assessed as percent of control at 50000 nM by qPCR analysis relative to control; format: protein-complex assay
# [7] = target: Cyclin-dependent kinase 11A (Homo sapiens) (UniProt Q9UQ88); assay: Inhibition of DNA-tagged human CDC2L2 assessed as percent of control at 50000 nM by qPCR analysis relative to control
# [8] = target: Calcium/calmodulin-dependent protein kinase type II subunit alpha (Homo sapiens) (UniProt Q9UQM7); assay: Inhibition of DNA-tagged human CAMK2A assessed as percent of control at 50000 nM by qPCR analysis relative to control
# Sequence of Calcium/calmodulin-dependent protein kinase type II subunit alpha (Homo sapiens) (Q9UQM7 whole entry): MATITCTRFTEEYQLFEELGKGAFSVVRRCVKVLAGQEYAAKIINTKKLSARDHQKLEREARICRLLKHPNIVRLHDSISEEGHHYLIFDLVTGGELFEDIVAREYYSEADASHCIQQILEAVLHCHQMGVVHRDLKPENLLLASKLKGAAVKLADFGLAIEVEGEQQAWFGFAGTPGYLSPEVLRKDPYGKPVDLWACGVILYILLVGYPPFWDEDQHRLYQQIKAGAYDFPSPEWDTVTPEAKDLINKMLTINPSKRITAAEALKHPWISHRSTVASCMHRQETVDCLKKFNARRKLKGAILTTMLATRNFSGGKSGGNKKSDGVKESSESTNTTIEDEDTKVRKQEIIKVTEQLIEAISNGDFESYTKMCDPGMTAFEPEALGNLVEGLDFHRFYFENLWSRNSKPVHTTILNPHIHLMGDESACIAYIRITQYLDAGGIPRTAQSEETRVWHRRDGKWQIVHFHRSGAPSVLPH
# [9] = target: Calcium/calmodulin-dependent protein kinase type 1D (Homo sapiens) (UniProt Q8IU85); assay: Inhibition of DNA-tagged human CAMK1D assessed as percent of control at 50000 nM by qPCR analysis relative to control
# [10] = target: Cytoplasmic tyrosine-protein kinase BMX (Homo sapiens) (UniProt P51813); assay: Inhibition of DNA-tagged human BMX assessed as percent of control at 50000 nM by qPCR analysis relative to control
# [11] = target: Tyrosine-protein kinase ABL2 (Homo sapiens) (UniProt P42684); assay: Inhibition of DNA-tagged human ABL2 assessed as percent of control at 50000 nM by qPCR analysis relative to control
# [12] = target: Tyrosine-protein kinase ABL1 (Homo sapiens) (UniProt P00519); assay: Inhibition of DNA-tagged phosphorylated human ABL1 assessed as percent of control at 50000 nM by qPCR analysis relative to control
# Sequence of Tyrosine-protein kinase ABL1 (Homo sapiens) (P00519 whole entry): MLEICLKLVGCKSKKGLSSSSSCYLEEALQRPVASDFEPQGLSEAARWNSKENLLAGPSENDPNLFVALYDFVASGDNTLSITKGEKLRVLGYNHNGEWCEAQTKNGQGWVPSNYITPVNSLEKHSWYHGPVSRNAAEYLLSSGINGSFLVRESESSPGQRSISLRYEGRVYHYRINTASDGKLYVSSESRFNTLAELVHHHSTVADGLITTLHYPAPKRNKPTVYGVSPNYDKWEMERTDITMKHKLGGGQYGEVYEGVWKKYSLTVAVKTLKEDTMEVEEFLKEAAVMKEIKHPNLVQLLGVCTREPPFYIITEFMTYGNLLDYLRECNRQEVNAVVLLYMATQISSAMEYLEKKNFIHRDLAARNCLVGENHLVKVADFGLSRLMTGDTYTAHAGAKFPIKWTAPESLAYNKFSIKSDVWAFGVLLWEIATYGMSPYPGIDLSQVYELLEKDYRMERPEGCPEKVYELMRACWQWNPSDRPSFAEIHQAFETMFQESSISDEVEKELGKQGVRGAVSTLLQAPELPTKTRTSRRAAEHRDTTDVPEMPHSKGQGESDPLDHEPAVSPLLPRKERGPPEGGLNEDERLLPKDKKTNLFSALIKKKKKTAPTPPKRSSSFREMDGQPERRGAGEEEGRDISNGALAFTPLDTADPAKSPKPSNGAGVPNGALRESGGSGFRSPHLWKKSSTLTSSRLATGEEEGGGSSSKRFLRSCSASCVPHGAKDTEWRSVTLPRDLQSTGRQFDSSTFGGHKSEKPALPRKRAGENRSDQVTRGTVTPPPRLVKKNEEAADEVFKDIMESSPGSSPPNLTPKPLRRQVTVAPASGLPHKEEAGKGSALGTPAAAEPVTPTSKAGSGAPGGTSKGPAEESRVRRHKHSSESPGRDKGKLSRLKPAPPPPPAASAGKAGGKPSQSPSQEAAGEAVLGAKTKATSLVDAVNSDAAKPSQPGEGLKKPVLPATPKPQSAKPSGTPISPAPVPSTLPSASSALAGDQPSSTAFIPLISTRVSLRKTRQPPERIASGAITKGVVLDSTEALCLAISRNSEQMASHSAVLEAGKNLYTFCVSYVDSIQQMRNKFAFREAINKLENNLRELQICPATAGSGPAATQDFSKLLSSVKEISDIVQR
# [13] = system: Tyrosine-protein kinase ABL1 (Homo sapiens), P00519 [F317L]; assay: Inhibition of DNA-tagged non-phosphorylated human ABL1 F317L mutant assessed as percent of control at 50000 nM by qPCR analysis relative to control
# [14] = target: Leukocyte tyrosine kinase receptor (Homo sapiens) (UniProt P29376); assay: Inhibition of DNA-tagged human LTK assessed as percent of control at 50000 nM by qPCR analysis relative to control
# [15] = target: MAP/microtubule affinity-regulating kinase 4 (Homo sapiens) (UniProt Q96L34); assay: Inhibition of DNA-tagged human MARK4 assessed as percent of control at 50000 nM by qPCR analysis relative to control
# [16] = target: Dual specificity mitogen-activated protein kinase kinase 2 (Homo sapiens) (UniProt P36507); assay: Inhibition of DNA-tagged human MEK2 assessed as percent of control at 50000 nM by qPCR analysis relative to control
# [17] = target: Serine/threonine-protein kinase MRCK beta (Homo sapiens) (UniProt Q9Y5S2); assay: Inhibition of DNA-tagged human MRCKB assessed as percent of control at 50000 nM by qPCR analysis relative to control
# Sequence of Serine/threonine-protein kinase MRCK beta (Homo sapiens) (Q9Y5S2 whole entry): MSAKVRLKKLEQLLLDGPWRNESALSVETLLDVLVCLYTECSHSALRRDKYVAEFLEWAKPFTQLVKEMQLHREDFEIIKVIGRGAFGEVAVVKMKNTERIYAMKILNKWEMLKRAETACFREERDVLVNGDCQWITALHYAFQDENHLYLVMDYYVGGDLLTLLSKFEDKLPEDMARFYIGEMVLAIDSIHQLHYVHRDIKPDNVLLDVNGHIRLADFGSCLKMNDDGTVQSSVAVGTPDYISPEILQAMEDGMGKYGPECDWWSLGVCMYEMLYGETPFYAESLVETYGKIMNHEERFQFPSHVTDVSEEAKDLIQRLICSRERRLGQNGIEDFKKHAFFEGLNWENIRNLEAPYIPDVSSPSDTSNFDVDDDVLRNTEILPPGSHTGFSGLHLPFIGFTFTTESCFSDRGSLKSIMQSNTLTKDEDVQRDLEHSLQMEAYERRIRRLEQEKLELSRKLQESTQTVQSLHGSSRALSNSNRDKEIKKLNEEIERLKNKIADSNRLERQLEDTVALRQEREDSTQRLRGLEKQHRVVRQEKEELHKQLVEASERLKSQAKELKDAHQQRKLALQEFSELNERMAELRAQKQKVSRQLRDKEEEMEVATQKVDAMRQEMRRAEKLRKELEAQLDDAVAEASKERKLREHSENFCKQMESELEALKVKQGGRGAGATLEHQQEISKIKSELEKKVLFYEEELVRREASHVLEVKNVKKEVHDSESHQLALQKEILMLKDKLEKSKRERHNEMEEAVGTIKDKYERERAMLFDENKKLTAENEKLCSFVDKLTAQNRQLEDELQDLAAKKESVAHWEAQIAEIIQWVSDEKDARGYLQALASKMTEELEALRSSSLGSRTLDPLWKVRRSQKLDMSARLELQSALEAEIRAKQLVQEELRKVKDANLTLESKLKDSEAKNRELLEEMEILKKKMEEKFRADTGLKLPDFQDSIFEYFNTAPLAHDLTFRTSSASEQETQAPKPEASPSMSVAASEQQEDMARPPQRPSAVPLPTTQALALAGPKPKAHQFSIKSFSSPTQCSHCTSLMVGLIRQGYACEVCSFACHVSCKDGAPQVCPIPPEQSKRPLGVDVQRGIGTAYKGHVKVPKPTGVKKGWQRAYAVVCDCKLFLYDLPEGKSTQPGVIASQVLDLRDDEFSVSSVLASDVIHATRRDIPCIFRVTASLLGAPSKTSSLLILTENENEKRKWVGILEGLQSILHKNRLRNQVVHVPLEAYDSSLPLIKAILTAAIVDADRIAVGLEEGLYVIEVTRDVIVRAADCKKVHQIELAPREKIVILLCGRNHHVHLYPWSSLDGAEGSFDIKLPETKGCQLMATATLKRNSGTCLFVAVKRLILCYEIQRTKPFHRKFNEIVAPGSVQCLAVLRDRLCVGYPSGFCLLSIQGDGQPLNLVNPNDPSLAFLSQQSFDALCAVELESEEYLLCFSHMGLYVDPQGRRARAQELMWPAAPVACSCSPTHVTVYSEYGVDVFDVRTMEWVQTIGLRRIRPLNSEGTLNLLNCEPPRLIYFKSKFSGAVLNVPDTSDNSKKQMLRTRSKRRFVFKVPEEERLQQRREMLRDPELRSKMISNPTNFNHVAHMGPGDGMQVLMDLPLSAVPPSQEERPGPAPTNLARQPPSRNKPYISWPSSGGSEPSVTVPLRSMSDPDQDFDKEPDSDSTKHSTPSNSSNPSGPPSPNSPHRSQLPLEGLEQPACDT
# [18] = target: Muscle, skeletal receptor tyrosine-protein kinase (Homo sapiens) (UniProt O15146); assay: Inhibition of DNA-tagged human MUSK assessed as percent of control at 50000 nM by qPCR analysis relative to control
# [19] = target: Serine/threonine-protein kinase Nek11 (Homo sapiens) (UniProt Q8NG66); assay: Inhibition of DNA-tagged human NEK11 assessed as percent of control at 50000 nM by qPCR analysis relative to control
# Sequence of Serine/threonine-protein kinase Nek11 (Homo sapiens) (Q8NG66 whole entry): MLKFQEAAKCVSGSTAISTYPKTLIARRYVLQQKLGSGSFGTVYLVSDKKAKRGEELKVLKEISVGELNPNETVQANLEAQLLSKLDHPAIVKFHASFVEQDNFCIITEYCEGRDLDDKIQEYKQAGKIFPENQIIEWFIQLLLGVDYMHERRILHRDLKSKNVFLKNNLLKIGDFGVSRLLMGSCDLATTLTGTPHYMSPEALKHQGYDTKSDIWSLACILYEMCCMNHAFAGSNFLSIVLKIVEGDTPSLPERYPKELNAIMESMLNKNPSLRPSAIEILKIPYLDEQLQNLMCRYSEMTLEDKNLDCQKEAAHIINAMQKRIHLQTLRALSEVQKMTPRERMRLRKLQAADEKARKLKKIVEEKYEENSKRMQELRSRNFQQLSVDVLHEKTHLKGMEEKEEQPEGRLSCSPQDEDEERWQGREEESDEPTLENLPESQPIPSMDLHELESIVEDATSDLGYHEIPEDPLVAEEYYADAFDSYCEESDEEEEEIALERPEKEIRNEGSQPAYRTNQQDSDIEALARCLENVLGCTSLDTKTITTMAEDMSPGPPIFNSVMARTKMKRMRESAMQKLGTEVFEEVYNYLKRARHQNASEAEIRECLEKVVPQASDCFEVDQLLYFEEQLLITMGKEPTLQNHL
# [20] = target: Serine/threonine-protein kinase PAK 3 (Homo sapiens) (UniProt O75914); assay: Inhibition of DNA-tagged human PAK3 assessed as percent of control at 50000 nM by qPCR analysis relative to control
# [21] = target: Platelet-derived growth factor receptor alpha (Homo sapiens) (UniProt P16234); assay: Inhibition of DNA-tagged human PDGFRA assessed as percent of control at 50000 nM by qPCR analysis relative to control
# [22] = target: Phosphatidylinositol 4,5-bisphosphate 3-kinase catalytic subunit gamma isoform (Homo sapiens) (UniProt P48736); assay: Inhibition of DNA-tagged human PIK3CG assessed as percent of control at 50000 nM by qPCR analysis relative to control
# [23] = target: cAMP-dependent protein kinase catalytic subunit beta (Homo sapiens) (UniProt P22694); assay: Inhibition of DNA-tagged human PKAC-beta assessed as percent of control at 50000 nM by qPCR analysis relative to control
# [24] = target: cGMP-dependent protein kinase 1 (Homo sapiens) (UniProt Q13976); assay: Inhibition of DNA-tagged human PRKG1 assessed as percent of control at 50000 nM by qPCR analysis relative to control
# [25] = target: cAMP-dependent protein kinase catalytic subunit PRKX (Homo sapiens) (UniProt P51817); assay: Inhibition of DNA-tagged human PRKX assessed as percent of control at 50000 nM by qPCR analysis relative to control
# [26] = target: Ribosomal protein S6 kinase alpha-1 (Homo sapiens) (UniProt Q15418); assay: Inhibition of DNA-tagged human C-terminal RSK1 kinase domain 2 assessed as percent of control at 50000 nM by qPCR analysis relative to control
# [27] = target: Ribosomal protein S6 kinase alpha-6 (Homo sapiens) (UniProt Q9UK32); assay: Inhibition of DNA-tagged human C-terminal RSK4 kinase domain 2 assessed as percent of control at 50000 nM by qPCR analysis relative to control
# [28] = target: STE20-like serine/threonine-protein kinase (Homo sapiens) (UniProt Q9H2G2); assay: Inhibition of DNA-tagged human SLK assessed as percent of control at 50000 nM by qPCR analysis relative to control
# [29] = target: Serine/threonine-protein kinase 25 (Homo sapiens) (UniProt O00506); assay: Inhibition of DNA-tagged human YSK1 assessed as percent of control at 50000 nM by qPCR analysis relative to control
smiles,measurement,setting,value
CN1C(=O)/C(=C2/C(=O)Nc3ccccc32)c2ccccc21,Activity,[1],90%
same,Activity,[2],95%
same,Activity,[3],83%
same,Activity,[4],84%
same,Activity,[5],100%
same,Activity,[6],81%
same,Activity,[7],100%
same,Activity,[8],99%
same,Activity,[9],100%
same,Activity,[10],89%
same,Activity,[11],89%
same,Activity,[12],96%
same,Activity,[13],100%
same,Activity,[14],92%
same,Activity,[15],77%
same,Activity,[16],89%
same,Activity,[17],83%
same,Activity,[18],86%
same,Activity,[19],100%
same,Activity,[20],93%
same,Activity,[21],85%
same,Activity,[22],100%
same,Activity,[23],91%
same,Activity,[24],95%
same,Activity,[25],100%
same,Activity,[26],84%
same,Activity,[27],71%
same,Activity,[28],100%
same,Activity,[29],40%

# — ChEMBL document CHEMBL4804284
